SMILES strings stand for the structures. pKi: −log10 of the molar value.

The term pKi denotes the Ki on a negative log10 scale, so that one unit is a factor of ten.

For the first test, the target named is T1, CCK receptor sites (Mus musculus, UniProt P56481).
T1 construct: from tissue; host or cells: cerebral cortex membranes of male CFLP mice
T1 sequence (P56481 1-453): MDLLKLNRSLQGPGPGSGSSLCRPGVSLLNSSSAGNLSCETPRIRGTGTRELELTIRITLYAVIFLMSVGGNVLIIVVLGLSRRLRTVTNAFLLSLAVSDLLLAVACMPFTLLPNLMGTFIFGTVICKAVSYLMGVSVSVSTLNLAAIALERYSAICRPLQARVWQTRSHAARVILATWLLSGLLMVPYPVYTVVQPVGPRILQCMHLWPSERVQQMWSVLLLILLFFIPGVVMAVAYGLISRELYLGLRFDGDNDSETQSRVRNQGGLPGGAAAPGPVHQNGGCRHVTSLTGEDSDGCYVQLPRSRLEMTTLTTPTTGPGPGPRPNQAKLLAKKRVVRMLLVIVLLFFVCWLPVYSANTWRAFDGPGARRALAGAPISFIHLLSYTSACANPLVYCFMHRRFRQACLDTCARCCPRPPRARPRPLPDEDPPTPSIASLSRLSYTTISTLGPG
As to the kind of experiment: CCK receptor binding, displacement of tritiated pentagastrin from mouse cerebral cortex membranes. The arrangement: key: IA = Inactive in respect to this binding assay. The settings on record: 2 nM tritiated pentagastrin, mouse cerebral cortical membranes; Ki from IC50 by Cheng-Prusoff. On the procedure:
The biological activity of compounds of the present invention was evaluated employing an initial screening test which rapidly and accurately measured the binding of the tested compound to known CCK receptor sites. […] (See Hays, et al, Neuropeptides 1:53-62, 1980; and Satuer, et al, Science 208:1155-1156, 1980.)
In this screening test the cerebral cortices taken from male CFLP mice weighing between 30 to 40 g were dissected on ice, weighed, and homogenized in 10 volumes of 50 mM Tris-HCl buffer (pH 7.4 at 0° to 4° C.). The resulting suspension was centrifuged, the supernate was discarded, and the pellet was washed by resuspension in Tris-HCl buffer followed by recentrifugation. The final pellet was resuspended in 20 volumes of […] Hepes buffer (pH 7.2 at 23° C.) containing 130 mM NaCl, […] KCl, […] MgCl2, […] EDTA, 5 mg/mL bovine albumin, and bacitracin (0.25 mg/mL).
In saturation studies, cerebral cortical membranes were incubated at 23° C. for 120 minutes in a final volume of 500 μL of Hepes incubation buffer (pH 7.2) together with 0.2-20 nM tritiated-pentagastrin (Amersham International, England).
In the displacement experiments, membranes were incubated with a single concentration (2 nM) of ligand, together with increasing concentrations of competitive test compound. In each case, the nonspecific binding was defined as that persisting in the presence of the unlabeled octapeptide CCK26-33 (10^-6 M).
Following incubation, radioactivity bound to membranes was separated from that free in solution by rapid filtration through Whatman GF/B filters and washed three times with 4 mL of ice cold Tris-HCl buffer. Filters from samples incubated with tritiated pentagastrin were placed in polyethylene vials with 4 mL of scintillation cocktail, and the radioactivity was estimated by liquid scintillation spectrometry (efficiency 47% to 52%).
The specific binding to CCK receptor sites was defined as the total bound tritiated pentagastrin minus the amount of tritiated pentagastrin bound in the presence of 10^-6 octapeptide, CCK26-33.
Saturation curves for specific tritiated pentagastrin binding to mouse cortical membranes were analyzed by the methods of Scatchard (Ann. New York Acad. Sci. 51:660-672, 1949; Hill, J. Physiol. 40:IV-VIII, 1910) to provide estimates for the maximum number of binding sites (βmax)and the equilibrium dissociation constant (Ka).
In displacement experiments, inhibition curves were analyzed by either logit-log plots or the iterative curve fitting computer program ALLFIT (DeLean, Munson, and Redbard, 1978) to provide estimates of the IC50 and nH (apparent Hill coefficient) values). IC50 values were defined as the concentration of test compound required to produce 50% inhibition of specific binding).
The inhibition constant (Ki) of the test compound was then calculated according to the Cheng-Prusoff equation: [formula] where [L] is the concentration of radiolabel and Ka is the equilibrium dissociation constant.
The Ki values for several representative compounds of the present invention are present in Table II.
Regarding `CC(Cc1cccnc1)(NC(=O)OC1C2CC3CC(C2)CC1C3)C(=O)NCCc1ccccc1` (stereo not shown), the Ki result is reported as “IA”.

`CC(Cc1c[nH]c2ccncc12)(NC(=O)OC1C2CC3CC(C2)CC1C3)C(=O)NC(CO)C(O)c1ccccc1` (stereo not shown) [drawing 67]: the Ki entry was “IA”.

As to `CC(Cc1ccncc1)(NC(=O)OC1C2CC3CC(C2)CC1C3)C(=O)NC(CO)Cc1ccccc1` (stereo not shown) [drawing 61 (Diast II)], the Ki result is “IA”. On to `CC(Cc1cccc[n+]1[O-])(NC(=O)OC1C2CC3CC(C2)CC1C3)C(=O)NCCc1ccccc1` (stereo not shown) [drawing 22 (H H H H H)], for which the Ki result is “IA”. Regarding `CC(Cc1ccc[n+]([O-])c1)(NC(=O)OC1C2CC3CC(C2)CC1C3)C(=O)NC(CO)Cc1ccccc1` (stereo not shown) [drawing 60 (Diast I)], the Ki entry is listed as “IA”.

For the compound `CC(Cc1cccc[n+]1[O-])(NC(=O)OC1C2CC3CC(C2)CC1C3)C(=O)NC(CO)Cc1ccccc1` (single isomer, unassigned) [drawing 22 (Diast II)], the Ki entry is reported as “IA”.

Turning to `CC(Cc1cccc[n+]1[O-])(NC(=O)OC1C2CC3CC(C2)CC1C3)C(=O)NC(CO)Cc1ccccc1` (single isomer, unassigned) [drawing 20], the Ki result was “IA”.

The same test, now with this note: 2 nM tritiated pentagastrin, mouse cerebral cortical membranes; Ki from IC50 by Cheng-Prusoff; read-out: Ki.
As for `CC(Cc1ccc2ccccc2n1)(NC(=O)OC1C2CC3CC(C2)CC1C3)C(=O)N[C@H](CO)Cc1ccccc1` (stereo partly shown) [drawing 36 (Diast I)], the pKi is 6.39.

Turning to `CC(Cc1n[nH]c2ccccc12)(NC(=O)OC1C2CC3CC(C2)CC1C3)C(=O)N[C@H](CO)Cc1ccccc1` (stereo partly shown) [drawing 38 (H H CH2 OH H H)], the pKi was 7.16. For the compound `CC(Cc1coc2ccccc12)(NC(=O)OC1C2CC3CC(C2)CC1C3)C(=O)NC(CO)Cc1ccccc1` (stereo not shown) [drawing 27 (H H CH2 OH H H)], the pKi was 6.44.

On to `CC(Cc1ncc2ccccn12)(NC(=O)OC1C2CC3CC(C2)CC1C3)C(=O)N[C@@H](CO)[C@@H](O)c1ccccc1` (stereo partly shown) [drawing 57 (H H CH2 OH H OH)], for which the pKi is 6.12.

As for `CC(Cc1ccncc1)(NC(=O)OC1C2CC3CC(C2)CC1C3)C(=O)NC(CO)Cc1ccccc1` (stereo not shown) [drawing 61 (Diast I)], the pKi was 6.43. Turning to `CC(Cc1ccnc2ccccc12)(NC(=O)OC1C2CC3CC(C2)CC1C3)C(=O)NCCc1ccccc1` (stereo not shown) [drawing 40 (H H H H H)], the pKi was 6.58.

For the compound `CC(Cc1ccc2ccccc2n1)(NC(=O)OC1C2CC3CC(C2)CC1C3)C(=O)NC(CO)Cc1ccccc1` (stereo not shown) [drawing 43 (H H CH2 OH H H)], the pKi was 6.40. As to `CC(Cc1cccc2ccccc12)(NC(=O)OC1C2CC3CC(C2)CC1C3)C(=O)NC(CO)Cc1ccccc1` (stereo not shown) [drawing 24], the pKi was 6.14. Turning to `CC(Cc1c[nH]c2ccncc12)(NC(=O)OC1C2CC3CC(C2)CC1C3)C(=O)NC(CO)C(O)c1ccccc1` (stereo not shown) [drawing 69], the pKi was 5.64. With `CC(Cc1csc2ccccc12)(NC(=O)OC1C2CC3CC(C2)CC1C3)C(=O)N[C@H](CO)Cc1ccccc1` (stereo partly shown) [drawing 47 (H H CH2 OH H H)], the pKi is 6.34. With `CC(Cc1ccnc2ccccc12)(NC(=O)OC1C2CC3CC(C2)CC1C3)C(=O)NCC(NC(=O)CCC(=O)O)c1ccccc1` (stereo not shown), the pKi was 7.06. With `CC(Cc1c(Br)oc2ccccc12)(NC(=O)OC1C2CC3CC(C2)CC1C3)C(=O)NC(CO)Cc1ccccc1` (stereo not shown) [drawing 28 (H H CH2 OH H H)], the pKi is 7.85. Regarding `CC(Cc1c(Br)oc2ccccc12)(NC(=O)OC1C2CC3CC(C2)CC1C3)C(=O)NCCc1ccccc1` (stereo not shown) [drawing 28 (H H H H H)], the pKi is 5.89. For the compound `CN1c2ccccc2C(c2ccccc2)=NCC1CC(C)(NC(=O)OC1C2CC3CC(C2)CC1C3)C(=O)NCCc1ccccc1` (stereo not shown) [drawing 64 (Diast I)], the pKi was 6.12. The same measure, in the same setting: as for `CC(Cc1ccnc2ccccc12)(NC(=O)OC1C2CC3CC(C2)CC1C3)C(=O)N[C@H](CO)Cc1ccccc1` (stereo partly shown) [drawing 40 (H H CH2 OH H H)], the figure is 6.89; as for `CC(Cc1cnc2ccccc2c1)(NC(=O)OC1C2CC3CC(C2)CC1C3)C(=O)NCCc1ccccc1` (stereo not shown), 6.52; as for `CC(CC1CCc2ccccc2N1)(NC(=O)OC1C2CC3CC(C2)CC1C3)C(=O)NCC(NC(=O)CCC(=O)O)c1ccccc1` (stereo not shown), 6.16. For `CC(Cc1csc2ccccc12)(NC(=O)OC1C2CC3CC(C2)CC1C3)C(=O)NCCc1ccccc1` (stereo not shown) [drawing 47 (H H H H H)], the pKi was 6.12. Consider `CC(Cc1ccc2ccccc2n1)(NC(=O)OC1C2CC3CC(C2)CC1C3)C(=O)NCC(NC(=O)CCC(=O)O)c1ccccc1` (stereo not shown), for which the pKi is 6.54.

In the case of `CC(Cc1n[nH]c2ccccc12)(NC(=O)OC1C2CC3CC(C2)CC1C3)C(=O)NCC(c1ccccc1)N1C(=O)CCC1=O` (stereo not shown) [drawing 53/drawing 54 (Diast II)], the pKi was 6.66. As for `CC(Cc1cc2c3ccccc3n(S(C)(=O)=O)c2cn1)(NC(=O)OC1C2CC3CC(C2)CC1C3)C(=O)NC(CO)Cc1ccccc1` (stereo not shown), the pKi is 6.07. On to `CC(Cc1cc2c(cn1)[nH]c1ccccc12)(NC(=O)OC1C2CC3CC(C2)CC1C3)C(=O)NC(CO)Cc1ccccc1` (stereo not shown), for which the pKi was 5.86.

In the case of `CC(Cc1ccccn1)(NC(=O)OC1C2CC3CC(C2)CC1C3)C(=O)NC(CO)Cc1ccccc1` (single isomer, unassigned) [drawing 14 (Diast I)], the pKi is 6.00.

For `CC(Cc1ncc2ccccn12)(NC(=O)OC1C2CC3CC(C2)CC1C3)C(=O)NCCc1ccccc1` (stereo not shown) [drawing 57 (H H H H H)], the pKi is 6.03.

For the compound `CC(Cc1cc2c(cn1)[nH]c1ccccc12)(NC(=O)OC1C2CC3CC(C2)CC1C3)C(=O)NCCc1ccccc1` (stereo not shown), the pKi was 5.66.

Regarding `CC(Cc1coc2ccccc12)(NC(=O)OC1C2CC3CC(C2)CC1C3)C(=O)NCCc1ccccc1` (stereo not shown) [drawing 27 (H H H H H)], the pKi is 6.00. In the case of `CC(Cc1cccc2ccccc12)(NC(=O)OC1C2CC3CC(C2)CC1C3)C(=O)NC(CO)Cc1ccccc1` (stereo not shown) [drawing 26], the pKi was 7.85. On the same count and under the same terms, as for `CC(C)COC(=O)OC[C@H](Cc1ccccc1)NC(=O)C(C)(Cc1cccnc1)NC(=O)OC1C2CC3CC(C2)CC1C3` (stereo partly shown) [drawing 32 (H H CH2 OCO2 i-Bu H H)], the figure is 5.52; as for `CC(Cc1cc2c3ccccc3n(S(C)(=O)=O)c2cn1)(NC(=O)OC1C2CC3CC(C2)CC1C3)C(=O)NCCc1ccccc1` (stereo not shown), 5.70. For the compound `CC(Cc1n[nH]c2ccccc12)(NC(=O)OC1C2CC3CC(C2)CC1C3)C(=O)NCCc1ccccc1` (stereo not shown) [drawing 38 (H H H H H)], the pKi is 7.00.

`CC(Cc1ccncc1)(NC(=O)OC1C2CC3CC(C2)CC1C3)C(=O)NCCc1ccccc1` (stereo not shown): the negative logarithm of the Ki (pKi) was 5.52. With `CC(Cc1ccc2ccccc2n1)(NC(=O)OC1C2CC3CC(C2)CC1C3)C(=O)NCCc1ccccc1` (stereo not shown) [drawing 36 (H H H H H)], the pKi is 6.40. For the compound `CC(Cc1cccnc1)(NC(=O)OC1C2CC3CC(C2)CC1C3)C(=O)N[C@H](CO)Cc1ccccc1` (stereo partly shown) [drawing 32 (Diast I)], the pKi is 6.15.

As for `CC(CC1C=Cc2ccccc2N1)(NC(=O)OC1C2CC3CC(C2)CC1C3)C(=O)NCC(NC(=O)CCC(=O)O)c1ccccc1` (stereo not shown), the pKi was 5.52.

On to `Cc1[nH]cc(CC(C)(NC(=O)OC2C3CC4CC(C3)CC2C4)C(=O)NC(CO)C(O)c2ccccc2)c1C` (stereo not shown) [drawing 56 (H H CH2 OH H OH)], for which the pKi was 5.52. On the same count and under the same terms, as for `CC(Cc1ccccn1)(NC(=O)OC1C2CC3CC(C2)CC1C3)C(=O)NCCc1ccccc1` (stereo not shown), the figure is 5.52.

These data come from patent US5331006A, “Amino acid analogs as CCK antagonists” (Warner-Lambert Company, priority 1991, dated 1994).
